Legend:
[1] = biological target: T1, Progesterone receptor (Homo sapiens, UniProt P06401); format: functional
T1 sequence (P06401 whole entry): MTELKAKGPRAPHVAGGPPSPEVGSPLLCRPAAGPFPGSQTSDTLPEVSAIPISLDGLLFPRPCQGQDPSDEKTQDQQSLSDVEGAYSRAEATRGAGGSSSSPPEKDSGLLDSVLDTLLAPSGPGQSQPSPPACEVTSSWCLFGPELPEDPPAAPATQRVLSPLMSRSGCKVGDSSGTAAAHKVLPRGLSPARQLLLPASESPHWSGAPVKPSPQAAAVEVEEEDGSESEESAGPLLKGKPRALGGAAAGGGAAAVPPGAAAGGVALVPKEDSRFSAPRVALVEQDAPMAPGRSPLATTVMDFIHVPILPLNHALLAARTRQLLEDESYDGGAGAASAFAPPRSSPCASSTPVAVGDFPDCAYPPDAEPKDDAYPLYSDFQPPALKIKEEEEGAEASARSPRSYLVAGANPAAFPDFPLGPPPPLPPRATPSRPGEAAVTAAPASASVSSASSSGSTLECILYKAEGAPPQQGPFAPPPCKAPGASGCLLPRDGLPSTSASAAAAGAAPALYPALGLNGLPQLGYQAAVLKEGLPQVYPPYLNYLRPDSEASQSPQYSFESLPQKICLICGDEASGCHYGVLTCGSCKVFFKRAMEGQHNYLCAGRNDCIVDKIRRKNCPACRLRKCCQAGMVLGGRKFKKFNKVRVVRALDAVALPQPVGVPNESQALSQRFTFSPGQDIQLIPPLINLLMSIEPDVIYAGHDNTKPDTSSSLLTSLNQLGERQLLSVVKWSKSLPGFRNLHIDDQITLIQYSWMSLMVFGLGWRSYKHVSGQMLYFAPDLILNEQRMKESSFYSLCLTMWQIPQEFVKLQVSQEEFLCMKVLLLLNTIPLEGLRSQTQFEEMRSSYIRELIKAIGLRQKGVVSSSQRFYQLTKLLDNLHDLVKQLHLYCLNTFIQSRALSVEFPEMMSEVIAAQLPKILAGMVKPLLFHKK

[2] = biological target: T2, Alpha-1A adrenergic receptor (Homo sapiens, UniProt P35348)
T2 sequence (P35348 whole entry): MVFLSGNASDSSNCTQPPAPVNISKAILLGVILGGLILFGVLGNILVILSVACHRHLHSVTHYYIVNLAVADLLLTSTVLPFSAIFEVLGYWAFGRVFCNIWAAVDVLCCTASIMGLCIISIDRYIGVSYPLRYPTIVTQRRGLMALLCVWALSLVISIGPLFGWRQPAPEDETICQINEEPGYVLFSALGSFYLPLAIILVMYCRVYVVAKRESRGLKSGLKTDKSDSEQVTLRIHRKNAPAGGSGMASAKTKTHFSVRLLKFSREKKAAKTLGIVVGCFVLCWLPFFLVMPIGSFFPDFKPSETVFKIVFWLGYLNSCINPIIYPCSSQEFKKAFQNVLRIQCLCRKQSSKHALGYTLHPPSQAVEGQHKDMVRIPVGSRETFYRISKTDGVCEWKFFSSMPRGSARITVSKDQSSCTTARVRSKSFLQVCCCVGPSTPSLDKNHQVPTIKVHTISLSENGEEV

[3] = biological target: Gamma-aminobutyric acid receptor subunit alpha-1 (Rattus norvegicus, UniProt P62813); format: functional
[4] = biological target: T3, 5-hydroxytryptamine receptor 1A (Homo sapiens, UniProt P08908); format: functional, cell-based
T3 sequence (P08908 whole entry): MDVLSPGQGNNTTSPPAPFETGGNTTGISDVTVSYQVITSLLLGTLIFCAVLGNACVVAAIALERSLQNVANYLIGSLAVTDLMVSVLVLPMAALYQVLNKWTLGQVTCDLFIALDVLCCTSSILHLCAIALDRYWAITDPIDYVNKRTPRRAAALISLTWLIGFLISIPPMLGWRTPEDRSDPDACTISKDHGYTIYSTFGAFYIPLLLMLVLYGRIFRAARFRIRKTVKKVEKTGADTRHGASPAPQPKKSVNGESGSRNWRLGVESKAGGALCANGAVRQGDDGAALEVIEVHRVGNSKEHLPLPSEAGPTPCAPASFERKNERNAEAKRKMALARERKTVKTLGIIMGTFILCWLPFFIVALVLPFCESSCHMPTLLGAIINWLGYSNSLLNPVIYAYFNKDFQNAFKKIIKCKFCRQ

[5] = biological target: Beta-2 adrenergic receptor (Homo sapiens, UniProt P07550)
[6] = biological target: 5-hydroxytryptamine receptor 2B (Homo sapiens, UniProt P41595); format: functional, cell-based
[7] = biological target: T2, Alpha-1A adrenergic receptor; format: functional, cell-based
[8] = biological target: 3',5'-cyclic-AMP phosphodiesterase 4A (Homo sapiens, UniProt P27815); format: functional
[9] = biological target: T3, 5-hydroxytryptamine receptor 1A
Further: assay procedure not described here.

5-hydroxytryptamine receptor 2B, sequence (P41595 whole entry): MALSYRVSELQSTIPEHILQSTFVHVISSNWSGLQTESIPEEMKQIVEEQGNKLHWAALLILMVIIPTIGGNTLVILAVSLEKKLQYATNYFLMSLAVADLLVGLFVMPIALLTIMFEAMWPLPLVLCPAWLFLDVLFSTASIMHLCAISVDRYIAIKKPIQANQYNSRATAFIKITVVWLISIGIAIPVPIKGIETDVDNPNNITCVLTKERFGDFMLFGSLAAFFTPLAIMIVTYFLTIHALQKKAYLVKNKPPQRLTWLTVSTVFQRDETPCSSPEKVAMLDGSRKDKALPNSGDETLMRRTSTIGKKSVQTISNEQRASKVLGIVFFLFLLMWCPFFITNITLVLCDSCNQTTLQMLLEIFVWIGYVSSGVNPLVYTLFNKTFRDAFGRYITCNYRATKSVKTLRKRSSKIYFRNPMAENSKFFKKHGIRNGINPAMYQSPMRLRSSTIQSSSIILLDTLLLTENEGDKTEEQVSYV
Beta-2 adrenergic receptor, sequence (P07550 whole entry): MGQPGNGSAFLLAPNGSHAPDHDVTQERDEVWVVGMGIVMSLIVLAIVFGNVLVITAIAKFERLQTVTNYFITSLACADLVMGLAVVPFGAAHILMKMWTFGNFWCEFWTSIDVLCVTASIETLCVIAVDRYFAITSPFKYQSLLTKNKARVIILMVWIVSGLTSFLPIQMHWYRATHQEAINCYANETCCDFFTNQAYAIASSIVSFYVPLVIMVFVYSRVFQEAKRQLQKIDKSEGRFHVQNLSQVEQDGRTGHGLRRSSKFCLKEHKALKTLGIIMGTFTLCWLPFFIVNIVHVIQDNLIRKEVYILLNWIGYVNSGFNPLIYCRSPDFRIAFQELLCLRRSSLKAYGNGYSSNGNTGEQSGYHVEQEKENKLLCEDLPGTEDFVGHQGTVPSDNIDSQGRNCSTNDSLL
Gamma-aminobutyric acid receptor subunit alpha-1, sequence (P62813 whole entry): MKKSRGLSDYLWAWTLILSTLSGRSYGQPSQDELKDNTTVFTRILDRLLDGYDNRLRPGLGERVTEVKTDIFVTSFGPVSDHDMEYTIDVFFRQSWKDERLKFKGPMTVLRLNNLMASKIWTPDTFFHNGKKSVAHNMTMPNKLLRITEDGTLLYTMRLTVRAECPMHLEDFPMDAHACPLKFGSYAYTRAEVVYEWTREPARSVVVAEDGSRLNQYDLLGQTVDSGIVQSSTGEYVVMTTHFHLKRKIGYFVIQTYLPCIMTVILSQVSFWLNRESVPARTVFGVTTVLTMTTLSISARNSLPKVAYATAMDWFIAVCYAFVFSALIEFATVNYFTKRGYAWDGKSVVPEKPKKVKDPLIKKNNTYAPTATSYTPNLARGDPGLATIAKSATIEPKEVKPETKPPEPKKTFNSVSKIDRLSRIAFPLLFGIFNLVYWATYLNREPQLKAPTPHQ
3',5'-cyclic-AMP phosphodiesterase 4A, sequence (P27815 whole entry): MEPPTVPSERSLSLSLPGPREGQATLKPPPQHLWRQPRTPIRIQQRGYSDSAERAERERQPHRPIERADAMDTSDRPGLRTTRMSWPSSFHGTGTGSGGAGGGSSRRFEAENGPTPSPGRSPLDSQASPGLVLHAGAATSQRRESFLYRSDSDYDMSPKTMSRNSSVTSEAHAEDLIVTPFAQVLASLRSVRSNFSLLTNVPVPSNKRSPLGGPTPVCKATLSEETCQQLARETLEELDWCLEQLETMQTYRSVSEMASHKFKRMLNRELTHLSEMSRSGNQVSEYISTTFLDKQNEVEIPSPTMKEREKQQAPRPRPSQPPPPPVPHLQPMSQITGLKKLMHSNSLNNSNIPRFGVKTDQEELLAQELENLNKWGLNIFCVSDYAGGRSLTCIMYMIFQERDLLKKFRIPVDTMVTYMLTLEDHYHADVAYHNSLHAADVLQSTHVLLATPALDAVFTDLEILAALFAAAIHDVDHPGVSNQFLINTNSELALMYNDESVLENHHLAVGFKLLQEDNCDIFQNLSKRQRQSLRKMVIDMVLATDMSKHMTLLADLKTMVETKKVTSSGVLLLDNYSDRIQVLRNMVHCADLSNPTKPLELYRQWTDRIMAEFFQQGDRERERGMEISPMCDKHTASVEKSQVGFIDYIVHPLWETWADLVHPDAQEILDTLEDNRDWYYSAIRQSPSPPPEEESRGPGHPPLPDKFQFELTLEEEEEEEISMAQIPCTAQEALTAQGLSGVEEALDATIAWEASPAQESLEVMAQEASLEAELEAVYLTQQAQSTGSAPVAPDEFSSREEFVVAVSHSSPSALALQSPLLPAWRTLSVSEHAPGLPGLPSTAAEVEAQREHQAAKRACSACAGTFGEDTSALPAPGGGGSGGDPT

Row | Compound | AC50 [1] [µM] | AC50 [2] [µM] | AC50 [3] [µM] | AC50 [4] [µM] | AC50 [5] [µM] | AC50 [6] [µM] | AC50 [7] [µM] | AC50 [8] [µM] | AC50 [9] [µM]
1 | C=CCNc1nc(NCC=C)nc(N2CCN(C(c3ccc(F)cc3)c3ccc(F)cc3)CC2)n1 [ALMITRINE] | > 30 | > 30 | > 30 | > 30 | > 30 | > 30 | – | – | –
2 | CCCCC(=O)O[C@]1(C(=O)CO)[C@@H](C)C[C@H]2[C@@H]3CCC4=CC(=O)C=C[C@]4(C)[C@@]3(F)[C@@H](O)C[C@@]21C [BETAMETHASONE VALERATE] | – | > 10 | > 10 | – | > 10 | > 10 | > 30 | – | –
3 | CC1OC2(CS1)CN1CCC2CC1 (stereo unspecified) [CEVIMELINE] | > 10 | > 30 | > 10 | > 10 | > 10 | > 10 | > 30 | – | –
4 | CNC1=Nc2ccc(Cl)cc2C(c2ccccc2)=[N+]([O-])C1 [CHLORDIAZEPOXIDE] | – | > 10 | 0.79 | – | > 10 | > 10 | > 30 | – | –
5 | Nc1ncn([C@H]2C[C@H](O)[C@@H](CO)O2)c(=O)n1 [DECITABINE] | > 30 | > 30 | > 30 | > 30 | – | > 30 | – | – | –
6 | CC(C)(C)C(=O)OCC(=O)[C@H]1CC[C@H]2[C@@H]3CCC4=CC(=O)CC[C@]4(C)[C@H]3CC[C@]12C [DESOXYCORTICOSTERONE PIVALATE] | 0.213 | > 10 | > 10 | – | > 10 | > 10 | > 30 | – | –
7 | CC(CCc1ccc(O)cc1)NCCc1ccc(O)c(O)c1 (stereo unspecified) [DOBUTAMINE] | > 30 | 0.255 | > 30 | > 10 | 5.07 | > 30 | 0.0054 | – | –
8 | CCOC(=O)c1cncn1[C@H](C)c1ccccc1 [ETOMIDATE] | > 10 | > 10 | – | > 10 | > 10 | > 10 | > 30 | – | –
9 | Cc1cnc(C(=O)NCCc2ccc(S(=O)(=O)NC(=O)NC3CCCCC3)cc2)cn1 [GLIPIZIDE] | – | > 10 | – | > 10 | > 10 | – | – | > 30 | 29.9
10 | CCC1(c2ccccc2)CCC(=O)NC1=O (stereo unspecified) [GLUTETHIMIDE] | > 10 | > 10 | > 10 | > 30 | > 10 | > 10 | > 30 | – | –
11 | C[C@H](Cc1ccc(O)c(O)c1)[C@@H](C)Cc1ccc(O)c(O)c1 [MASOPROCOL] | > 30 | 8.61 | > 10 | – | > 10 | > 10 | > 30 | – | –
12 | OC1(c2ccc(Cl)cc2)c2ccccc2C2=NCCN21 (stereo unspecified) [MAZINDOL] | > 30 | > 10 | > 30 | > 30 | > 30 | > 30 | > 30 | – | –
13 | CC12CC3CC(C)(C1)CC(N)(C3)C2 [MEMANTINE] | – | > 10 | > 10 | > 10 | > 10 | > 10 | > 30 | – | –
14 | CCOC(=O)C1=C(C)NC(C)=C(C(=O)OC)C1c1cccc([N+](=O)[O-])c1 (stereo unspecified) [NITRENDIPINE] | – | > 10 | > 10 | > 10 | > 10 | > 10 | > 30 | – | –
15 | [H]/N=C(/N)N/C(=N/[H])NCCc1ccccc1 [PHENFORMIN] | – | 15 | > 10 | > 30 | > 10 | > 30 | – | – | –
16 | CCCCC1C(=O)N(c2ccccc2)N(c2ccccc2)C1=O [PHENYLBUTAZONE] | > 10 | > 10 | > 10 | > 10 | > 10 | > 10 | – | – | –
17 | CC(N)C(O)c1ccccc1 (stereo unspecified) [PHENYLPROPANOLAMINE] | – | > 10 | > 10 | > 10 | > 10 | > 10 | > 30 | – | –
18 | CCCN[C@H]1CCc2nc(N)sc2C1 [PRAMIPEXOLE] | > 30 | > 10 | > 10 | > 10 | > 30 | > 10 | > 30 | – | –
19 | Cc1noc(NS(=O)(=O)c2ccc(N)cc2)c1C [SULFISOXAZOLE] | > 10 | > 10 | > 10 | – | > 10 | > 10 | > 30 | – | –
20 | CCC(=O)O[C@H]1CC[C@H]2[C@@H]3CCC4=CC(=O)CC[C@]4(C)[C@H]3CC[C@]12C [TESTOSTERONE PROPIONATE] | 0.328 | > 10 | > 30 | > 10 | > 10 | > 10 | > 30 | – | –
21 | Clc1ccc(C(Cn2ccnc2)OCc2ccsc2Cl)c(Cl)c1 (stereo unspecified) [TIOCONAZOLE] | > 30 | 13.5 | > 30 | > 30 | 10.6 | > 30 | > 30 | – | –
22 | Cc1cc2cc3c(C)cc(=O)oc3c(C)c2o1 [TRIOXSALEN] | > 30 | > 10 | > 10 | > 10 | > 10 | > 10 | – | – | –
23 | CC(C)[C@H](N)C(=O)OCC(CO)OCn1cnc2c(=O)nc(N)[nH]c21 (stereo partly specified) [VALGANCICLOVIR] | > 30 | > 30 | > 30 | > 30 | > 30 | > 30 | – | – | –
24 | CCCC(CCC)C(N)=O [VALPROMIDE] | – | > 10 | > 10 | – | > 10 | > 10 | > 30 | – | –
25 | Cc1cc(C(C)(C)C)cc(C)c1CC1=NCCN1 [XYLOMETAZOLINE] | > 30 | 1.27 | > 30 | – | > 30 | 1.16 | 0.0023 | – | –
